The values below come from patent US20140275063A1, “NEW ENZYME INHIBITOR COMPOUNDS” (PROXIMAGEN LIMITED, priority 2011, published 2014).

Broadly, the pIC50 is the IC50 on a negative log10 scale, so that one unit is a factor of ten.

pIC50: −log10 of the molar value. Structures can show the parent of a compound that is named as a salt. A value given as a limit tells only on which side of the number the result lay.

This experiment addresses T1, human SSAO (Homo sapiens, UniProt Q16853).
T1 construct: made in house
T1 sequence (Q16853 29-763 limits assumed): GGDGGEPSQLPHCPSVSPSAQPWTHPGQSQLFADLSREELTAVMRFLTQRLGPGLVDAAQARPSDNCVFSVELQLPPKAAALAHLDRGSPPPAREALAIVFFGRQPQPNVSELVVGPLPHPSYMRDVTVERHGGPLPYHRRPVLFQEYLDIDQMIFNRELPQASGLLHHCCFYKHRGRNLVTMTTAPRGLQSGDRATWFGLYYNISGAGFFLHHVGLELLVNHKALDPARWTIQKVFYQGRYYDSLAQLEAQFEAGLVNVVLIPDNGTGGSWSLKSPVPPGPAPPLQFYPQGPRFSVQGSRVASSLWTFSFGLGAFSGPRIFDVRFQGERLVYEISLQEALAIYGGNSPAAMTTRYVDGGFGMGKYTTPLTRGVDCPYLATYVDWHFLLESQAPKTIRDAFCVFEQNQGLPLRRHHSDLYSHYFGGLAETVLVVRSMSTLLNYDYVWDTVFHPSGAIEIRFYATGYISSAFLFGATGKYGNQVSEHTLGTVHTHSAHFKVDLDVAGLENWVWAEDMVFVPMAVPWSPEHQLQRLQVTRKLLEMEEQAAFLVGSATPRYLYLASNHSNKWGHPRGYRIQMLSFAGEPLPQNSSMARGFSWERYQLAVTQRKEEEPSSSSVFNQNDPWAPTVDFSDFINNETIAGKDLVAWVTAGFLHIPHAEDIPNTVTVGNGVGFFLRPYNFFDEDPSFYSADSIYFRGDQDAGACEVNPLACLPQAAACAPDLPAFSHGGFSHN
As to the kind of experiment: SSAO inhibitory activity (HRP-coupled hydrogen peroxide detection or 14C-benzaldehyde detection, benzylamine substrate). The class given is biochemical. The settings on record: purified recombinantly expressed human SSAO, benzylamine as substrate, RT. The method, then:
All primary assays were performed at RT. with purified recombinantly expressed human SSAO. Enzyme was prepared essentially as described in Öhman et al. (Protein Expression and Purification 46 (2006) 321-331). In addition, secondary- and selectivity assays were performed using SSAO prepared from various tissues or purified rat recombinant SSAO. The enzyme activity was assayed with benzylamine as substrate by measuring either benzaldehyde production, using ^14C-labeled substrate, or by utilizing the production of hydrogen peroxide in a horseradish peroxidase (HRP) coupled reaction. Briefly, test compounds were dissolved in dimethyl sulfoxide (DMSO) to a concentration of 10 mM. Dose-response measurements were assayed by either creating 1:10 serial dilutions in DMSO to produce a 7 point curve or by making 1:3 serial dilutions in DMSO to produce 11 point curves. The top concentrations were adjusted depending on the potency of the compounds and subsequent dilution in reaction buffer yielded a final DMSO concentration ≦2%.
In a horseradish peroxidase (HRP) coupled reaction, hydrogen peroxide oxidation of 10-acetyl-3,7-dihydroxyphenoxazine produced resorufin, which is a highly fluorescent compound (Zhout and Panchuk-Voloshina. Analytical Biochemistry 253 (1997) 169-174; Amplex® Red Hydrogen Peroxideperoxidase Assay kit, Invitrogen A22188). Enzyme and compounds in 50 mM sodium phosphate, pH 7.4 were set to pre-incubate in flat-bottomed microtiter plates for approximately 15 minutes before initiating the reaction by addition of a mixture of HRP, benzylamine and Amplex reagent. Benzylamine concentration was fixed at a concentration corresponding to the Michaelis constant, determined using standard procedures. Fluorescence intensity was then measured at several time points during 1-2 hours, exciting at 544 nm and reading the emission at 590 nm. For the human SSAO assay final concentrations of the reagents in the assay wells were: SSAO enzyme 1 μg/ml, benzylamine 100 μM, Amplex reagent 20 μM, HRP 0.1 U/mL and varying concentrations of test compound. The inhibition was measured as % decrease of the signal compared to a control without inhibitor (only diluted DMSO). The background signal from a sample containing no SSAO enzyme was subtracted from all data points. Data was fitted to a four parameter logistic model and IC50 values were calculated using the Graph Pad Prism 4 or XLfit 4 programs.
SSAO activity was assayed using 14C-labeled benzylamine and analysed by measuring radioactive benzaldehyde. In a white 96-well optiplate (Packard), 20 μL of diluted test compound was pre-incubated at RT. with 20 μL SSAO enzyme for approximately 15 minutes with continuous agitation. All dilutions were made with PBS. The reaction was initiated by adding 20 μL of the benzylamine substrate solution containing [7-14C] Benzylamine hydrochloride (CFA589, GE Healthcare). The plate was incubated for 1 hour as above after which the reaction was stopped by acidification (10 μL 1 M HCl). Then 90 μL Micro Scint-E solution (Perkin-Elmer) was added to each well and the plate was continuously mixed for 15 minutes. Phase separation occurred instantly and activity was read in a Topcount scintillation counter (Perkin-Elmer). In the final reaction well, the human recombinant SSAO concentration was 10 μg/ml. In order to optimize sensitivity, the substrate concentration was decreased as compared to the HRP coupled assay in order to get a higher fraction of radioactive product. In the human SSAO assay, benzylamine concentration was 40 μM (0.2 μCi/mL). Data was analysed as above.
As for `CC(=O)NCCCNC(=O)N1CCC(c2cn(-c3ccc(Cl)cc3)c3cnccc23)CC1` [Compound 29, N-[3-({4-[1-(4-Chlorophenyl)-1H-pyrrolo[2,3-c]pyridin-3-yl]piperidin-1-yl}carbonylamino)propyl]acetamide], the pIC50 was greater than 7.00.

For `CN1CCC(CNC(=O)CC2COCCN2c2nn(-c3ccc(Cl)cc3)c3cnccc23)CC1` (stereo not shown) [Compound 58, 2-{4-[1-(4-Chlorophenyl)-1H-pyrazolo[3,4-c]pyridin-3-yl]morpholin-3-yl}-N-[(1-methylpiperidin-4-yl)methyl] acetamide], the pIC50 is 6.30 to 7.00.

`CC(C)[C@H]1CN(C(=O)N2CCC(c3cn(-c4ccc(Cl)cc4)c4cnccc34)CC2)CCN1` [Compound 19, (3S)-1-({4-[1-(4-Chlorophenyl)-1H-pyrrolo[2,3-c]pyridin-3-yl]piperidin-1-yl}carbonyl)-3-(propan-2-yl) piperazine]: the pIC50 was greater than 7.00.

Turning to `O=C(NCC1CNCCO1)N1CCC(c2cn(-c3ccc(Cl)cc3)c3cnccc23)CC1` (stereo not shown) [Compound 20, 4-[1-(4-Chlorophenyl)-1H-pyrrolo[2,3-c]pyridin-3-yl]-N-(morpholin-2-ylmethyl) pipendine-1-carboxamide], the pIC50 is greater than 7.00.

`Cc1ccc(-n2nc(N3CCOC(CN4CCOCC4)C3)c3ccncc32)cc1` (stereo not shown) [Compound 34, 4-[1-(4-Methylphenyl)-1H-pyrazolo[3,4-c]pyridin-3-yl]-2-(morpholin-4-ylmethyl)morpholine]: the pIC50 was 6.30 to 7.00.

For `CC(=O)OC1CCN(c2nn(-c3ccc(C)cc3)c3cnccc23)CC1` [Compound 52, 1-[1-(4-Methylphenyl)-1H-pyrazolo[3,4-c]pyridin-3-yl]piperidin-4-yl acetate], the pIC50 is greater than 7.00.

Regarding `CN1CCN(C)C(CNC(=O)N2CCC(c3cn(-c4ccc(Cl)cc4)c4cnccc34)CC2)C1` (stereo not shown) [Compound 21, 4-[1-(4-Chlorophenyl)-1H-pyrrolo[2,3-c]pyridin-3-yl]-N-[(1,4-dimethyl-piperazin-2-yl)methyl] piperidine-1-carboxamide], the pIC50 is greater than 7.00.

For the molecule `CN1CCN(CCC2COCCN2c2nn(-c3ccc(Cl)cc3)c3cnccc23)CC1` (stereo not shown) [Compound 42, 4-[1-(4-Chlorophenyl)-1H-pyrazolo[3,4-c]pyridin-3-yl]-3-[2-(4-methylpiperazin-1-yl)ethyl]morpholine], the pIC50 was greater than 7.00.

Turning to `Clc1ccc(-n2nc(N3CCC(CN4CCOCC4)CC3)c3ccncc32)cc1` [Compound 48, 4-({1-[1-(4-Chlorophenyl)-1H-pyrazolo[3,4-c]pyridin-3-yl]piperidin-4-yl}methyl) morpholine dihydrochloride], the pIC50 was greater than 7.00.

`O=C(NC(c1nn[nH]n1)C1CC1)N1CCC(c2cn(-c3ccc(Cl)cc3)c3cnccc23)CC1` (stereo not shown) [Compound 62, 4-[1-(4-Chlorophenyl)-1H-pyrrolo[2,3-c]pyridin-3-yl]-N—[cyclopropyl(2H-1,2,3,4-tetrazol-5-yl)methyl]piperidine-1-carboxamide; trifluoroacetic acid]: the pIC50 was greater than 7.00.

In the case of `CN1CCC(NC(=O)N2CCC(c3cn(-c4ccc(Cl)cc4)c4cnccc34)CC2)CC1` [Compound 8, 4-[1-(4-Chlorophenyl)-1H-pyrrolo[2,3-c]pyridin-3-yl]-N-(1-methylpiperidin-4-yl)piperidine-1-carboxamide], the pIC50 is greater than 7.00.

On to `O=C(NCCN1CCOCC1)N1CCC(c2cn(-c3ccc(Cl)cc3)c3cnccc23)CC1` [Compound 22, 4-[1-(4-Chlorophenyl)-1H-pyrrolo[2,3-c]pyridin-3-yl]-N-[2-(morpholin-4-yl)ethyl]piperidine-1-carboxamide], for which the pIC50 is greater than 7.00.

With `CC(C)N1CCN(C(=O)N2CCC(c3cn(-c4ccc(Cl)cc4)c4cnccc34)CC2)CC1` [Compound 17, 1-({4-[1-(4-Chlorophenyl)-1H-pyrrolo[2,3-c]pyridin-3-yl]piperidin-1-yl}carbonyl)-4-(propan-2-yl)piperazine], the pIC50 was greater than 7.00.

For `NC(=O)NCC1CN(c2nn(-c3ccc(Cl)cc3)c3cnccc23)CCO1` (stereo not shown) [Compound 59, ({4-[1-(4-Chlorophenyl)-1H-pyrazolo[3,4-c]pyridin-3-yl]morpholin-2-yl}methyl)urea], the pIC50 is greater than 7.00.

As for `CN1CCC(CNC(=O)N2CCN(c3nn(-c4ccc(Cl)cc4)c4cnccc34)CC2)CC1` [Compound 51, 4-[1-(4-Chlorophenyl)-1H-pyrazolo[3,4-c]pyridin-3-yl]-N-[(1-methylpiperidin-4-yl)methyl]piperazine-1-carboxamide], the pIC50 is greater than 7.00.

As for `CN1CCN(CC2CN(c3nn(-c4ccc(Cl)cc4)c4cnccc34)CCO2)CC1` (stereo not shown) [Compound 35, 4-[1-(4-Chlorophenyl)-1H-pyrazolo[3,4-c]pyridin-3-yl]-2-[(4-methylpiperazin-1-yl)methyl]morpholine], the pIC50 is 6.30 to 7.00.

With `O=C(NCCN1CCNCC1)N1CCC(c2cn(-c3ccc(Cl)cc3)c3cnccc23)CC1` [Compound 23, 4-[1-(4-Chlorophenyl)-1H-pyrrolo[2,3-c]pyridin-3-yl]-N-[2-(piperazin-1-yl)ethyl] piperidine-1-carboxamide], the pIC50 was greater than 7.00.

Regarding `Clc1ccc(-n2nc(NCCN3CCOCC3)c3ccncc32)cc1` [Compound 44, 1-(4-Chlorophenyl)-N-[2-(morpholin-4-yl)ethyl]-1H-pyrazolo[3,4-c]pyridin-3-amine], the pIC50 is 5.60 to 6.30.

With `Clc1ccc(-n2cc(C3CCN(C4CCNCC4)CC3)c3ccncc32)cc1` [Compound 2, 4-[1-(4-Chlorophenyl)-1H-pyrrolo[2,3-c]pyridin-3-yl]-1-(piperidin-4-yl)piperidine], the pIC50 is 6.30 to 7.00.
